Experimental data published in patent US6482921B1, “Uridyl peptide antibiotic (UPA) derivatives, their synthesis and use” (Essential Therapeutics, Inc., priority 1999, dated 2002).
Values after ≈ are worked out from the molar mass of the structure shown.

Assays:
Type in all cases: cell-based
[1] = system: Escherichia Coli MC 4100 AcrAB; assay: MIC broth microdilution, E. coli MC 4100 AcrAB (ΔAcrAB); conditions: E. coli AcrAB
[2] = system: Pseudomonas aeruginosa PAM 1323; assay: MIC broth microdilution, P. aeruginosa PAM 1323 (medium level UPA resistance)
Description: Compounds were tested against several panels of bacteria. In a first panel, Table 3, several strains of Pseudomonas aeruginosa, Escherichia coli and Staphylococcus aureus were employed as the target bacteria.
For the bacteria in Table 3, the assay was performed in Mueller-Hinton Broth (MHB) with a final bacterial inoculum of 5×10^5 CFU/ml and a final volume of 100 μl. Control drugs, including imipenem and pacidimycin 4, and the test compounds were prepared at a concentration which was twice the desired final concentration (256 μg/ml). Dilution of the controls and the test compounds was accomplished directly on the test plates by serial 2-fold dilution using a multi-channel pipette. Both a positive and a negative growth control was included in each plate.
The bacterial inocula were prepared as follows. Bacterial strains were grown overnight at 35° C. in MHB. […] The culture was then diluted 1:10 and allowed to grow for an additional one hour at 35° C. in a shaking incubator. The inocula were then prepared by diluting the early log phase (one hour) cultures 1:2000 with fresh MHB. A volume of 50 μl of the inocula was added to each well, resulting in an inoculum of approximately 5×10^5 CFU/ml. The exact inocula were determined by putting 10 μl of 10-fold serial dilution of the bacterial suspensions onto TSA. After overnight incubation at 35° C., colony-forming units were counted manually.
The microtiter plates were incubated for 20 hours at 35° C. and were then read using a microtiterplate reader (Molecular Devices) at 650 nm as well as being visually observed using a microtiterplate reading mirror.

[3] = system: Pseudomonas aeruginosa PAM 1154; assay: MIC broth microdilution, P. aeruginosa PAM 1154 (OprM::Hg); conditions: P. aeruginosa PAM 1154 OprM::Hg
[4] = system: Escherichia Coli MC 4100 AcrAB UPA3r; assay: MIC broth microdilution, E. coli MC 4100 AcrAB UPA3r (ΔAcrAB, UPA resistant); conditions: E. coli AcrAB UPA3^r
[5] = system: Staphylococcus aureus 8325-4; assay: MIC broth microdilution, S. aureus 8325-4 (wild type); conditions: S. aureus 8325-4
[6] = system: Pseudomonas aeruginosa PAM 1135; assay: MIC broth microdilution, P. aeruginosa PAM 1135 (high level UPA resistance); conditions: P. aeruginosa PAM 1135 UPA1^r
[7] = system: Staphylococcus aureus ATCC 29213; assay: MIC broth microdilution, S. aureus ATCC 29213 (wild type); conditions: S. aureus ATCC 29213
[8] = system: Pseudomonas aeruginosa PAM 1020; assay: MIC broth microdilution, P. aeruginosa PAM 1020 (wild type); conditions: P. aeruginosa PAM 1020
[9] = system: Escherichia Coli MC 4100; assay: MIC broth microdilution, E. coli MC 4100 (wild type); conditions: E. coli MC 4100
[10] = system: Pasteurella multocida pm002; assay: MIC broth microdilution, P. multocida pm002 (wild type)

Compound	MIC (μg/ml) Broth microdilution [1] [µg/mL]	MIC (μg/ml) Broth microdilution [2] [µg/mL]	MIC (μg/ml) Broth microdilution [3] [µg/mL]	MIC (μg/ml) Broth microdilution [4] [µg/mL]	MIC (μg/ml) Broth microdilution [5] [µg/mL]	MIC (μg/ml) Broth microdilution [6] [µg/mL]	MIC (μg/ml) Broth microdilution [7] [µg/mL]	MIC (μg/ml) Broth microdilution [8] [µg/mL]	MIC (μg/ml) Broth microdilution [9] [µg/mL]	MIC (μg/ml) Broth microdilution [10] [µg/mL]
1-[5′-[(2S,3S)-N^2-[N-[[(1S)-1-Carboxy-2-indol-3-ylethyl]carbamoyl]-L-alanyl]-N^3-L-3-hydroxyphenylalanyl-N^3-methyl-2,3-diaminobutyramidol-3′,5′-dideoxy-α-L-arabinofuranosyl]uracil [Compound 103]	2	512	8	32	256	>512	512	16	512	256
CSCCC(N)C(=O)N(C)C(C)C(NC(=O)C(C)NC(=O)NC(Cc1c[nH]c2ccccc12)C(=O)O)C(=O)NCC1CC(O)C(n2ccc(=O)[nH]c2=O)O1 [Compound 168, 1-[5′-[(2S,3S)-N^2-[N-[[(1S)-1-Carboxy-2-indol-3-ylethyl]carbamoyl]-L-alanyl]-N^3-L-methionyl-N^3-methyl-2,3-diaminobutyramido]-3′,5′-dideoxy-α-L-arabinofuranosyl]uracil]	4 (≈ 5.17 µM)	>512	8 (≈ 10.3 µM)	256 (≈ 331 µM)	>512	>512	>512	64 (≈ 82.7 µM)	>512	256 (≈ 331 µM)
C[C@H](N)C(=O)N(C)[C@@H](C)[C@H](NC(=O)[C@H](Cc1ccc(C(F)(F)F)cc1)NC(=O)N[C@@H](Cc1ccc(O)cc1)C(=O)O)C(=O)NC[C@H]1C[C@@H](O)[C@H](n2ccc(=O)[nH]c2=O)O1 [Compound 145, 1-[5′-[(2S,3S)-N^3-L-Alanyl-N^2-[N-[[(1S)-1-carboxy-4-hydroxyphenethyl]carbamoyl]-L-4-(trifluoromethyl)phenylalanyl]-N^3-methyl-2,3-diaminobutyramido]-3′,5′-dideoxy-α-L-arabinofuranosyl]uracil]	4 (≈ 4.79 µM)	>512	32 (≈ 38.3 µM)	128 (≈ 153 µM)	>512	>512	>512	256 (≈ 307 µM)	512 (≈ 613 µM)	512 (≈ 613 µM)
C[C@H](NC(=O)N[C@@H](Cc1c[nH]c2ccccc12)C(=O)O)C(=O)N[C@H](C(=O)NC[C@H]1C[C@@H](O)[C@H](n2ccc(=O)[nH]c2=O)O1)[C@H](C)N(C)C(=O)[C@@H](C)N [Compound 171, 1-[5′-[(2S,3S)-N^3-D-Alanyl-N^2-[N-[[(1S)-1-carboxy-2-indol-3-ylethyl]carbamoyl]-L-alanyl]-N^3-methyl-2,3-diaminobutyramido]-3′,5′-dideoxy-α-L-arabinofuranosyl]uracil]	16 (≈ 22.4 µM)		32 (≈ 44.8 µM)	128 (≈ 179 µM)	>512	>512	>512	512 (≈ 717 µM)	>512	
